The record followed here is PMC8178976, “A biocompatible stapling reaction for in situ generation of constrained peptides” (Chemical Science, 2020).

Like-named read-outs stand apart in the source and are kept apart here. Where a SMILES comes first, the peptide text is derived from it. [ ]: non-standard residue; d: D form. Dab = NCC[C@H](N)C(=O)O

For orientation: IC50 means the point on the concentration scale where inhibition reaches its midpoint. Low values mean inhibition by little substance, high ones a need for much substance. The inhibition is the change of the read-out against control, counted positive when it falls.

Series [1] addresses Zika virus NS2B-NS3 protease (ZiPro) (Zika virus, UniProt A0A024B7W1). The experiment in a line: Zika virus NS2B-NS3 protease (ZiPro) inhibition assay. Conditions: for IC50: purified compounds, dose-response curve assuming Hill slope of 1, 3-parameter fit. Type of series: biochemical. Here is the method: Expression and purification of Zika virus protease NS2B-NS3 (ZiPro)
The unlinked Zika virus protease NS2B-NS3 construct referred to as bZiPro was obtained from Addgene (plasmid #86846) and expressed and purified exactly as described previously.1 Preparation of samples for ZiPro assay
Linear peptide samples 1a – 10a were prepared by adding 2 µl of 1a – 10a (10 mM in water) to 198 µl of buffer (10 mM Tris pH 7.5, 1 mM TCEP). The presence of TCEP is important to reduce cyclic disulfides. Stapled peptides 1b – 10b were prepared in situ by adding 2.5 µl of DCP (10 mM in DMSO) and 2 µl of 1a – 10a (10 mM in water) to 195.5 µl of buffer (10 mM Tris pH 7.5, 1 mM TCEP). Samples were incubated overnight, and the presence of stapled peptides 1b – 10b was confirmed by LC-MS (method B).
ZiP ro inhibition assay (Table 2)
The assay was conducted in 96-well plates (black U-bottom, Greiner Bio-One) in a total volume of 100 µl using 10 mM Tris pH 8.5, 1 mM CHAPS, 20% glycerol . All measurements were performed in triplicate. Purified peptides 1a – 10a and crude mixtures containing peptides 1b – 10b (prepared as described above) were incubated with ZiPro (0.3 nM) at final concentrations of 1 and 10 µM. The enzymatic reaction was initiated by addition of the substrate Bz-Nle-Ly s-Lys-Arg-A MC (Biosynt a n) at a final concentration of 5 µM.
Fluorescence was monitored by a fluorophotometer (Spectramax M2e plate reader, Molecular Devices) for 5 min at 460 nm using 360 nm excitation. Initial velocities were derived from the linear range, and 100% enzyme activity was defined as the initial velocity of blank wells containing no peptide. Percent inhibition was calculated as a fraction of 100% enzyme activity.
In situ stapling of 1b during ZiPro inhibition assay (Figure 3a)
All measurements were performed in triplicate. 2 µl of DCP (20 mM in DMSO) and 2 µl of 1a (10 mM in water) were mixed in 196 µl buffer (10 mM Tris pH 7.5, 4 mM TCEP). A blank was prepared by adding 2 µl of DCP (20 mM in DMSO) to 198 µl buffer (10 mM Tris pH 7.5, 4 mM TCEP). After 5 minutes, 10 µl of the reaction and blank mixtures were added to ZiPro (0.3 nM) in assay buffer (10 mM Tris pH 8.5, 1 mM CHAPS, 20% glycerol) to a total volume of 100 µl and incubated at room temperature. After incubation over 5, 20, 45, 90 and 180 minutes, substrate (5 µM) was added, and the enzyme activity was monitored as described above. Percent inhibition was calculated as a fraction of 100% enzyme activity considering each individual set of blanks.
Determination of IC50 values of 1a and 1b (Figure 3b-c)
All measurements were performed in triplicate using the ZiPro assay described above . Stock solutions (1 mM and 2 mM) of 1a were prepared in buffer (10 mM Tris pH 7.5, 4 m M T C EP) and used immediately. ZiPro inhibition of 1a was measured at 100, 50, 20, 5, 2. 5, 1, and 0. 5
µM. Stock solutions of purified 1b were made in water. ZiPro inhibition of 1b was measured at 50, 20, 5, 2.5, 1, 0.5, and 0.1 µM. The IC50 values were calculated using GraphPad Prism 8 using a 3 -parameter fit . […]

For series [2] the following is noted: the molecule shown is the open-chain precursor, crosslinker bond, 0.6 mM.

Chain of Zika virus NS2B-NS3 protease (ZiPro) (A0A024B7W1 1503-1679): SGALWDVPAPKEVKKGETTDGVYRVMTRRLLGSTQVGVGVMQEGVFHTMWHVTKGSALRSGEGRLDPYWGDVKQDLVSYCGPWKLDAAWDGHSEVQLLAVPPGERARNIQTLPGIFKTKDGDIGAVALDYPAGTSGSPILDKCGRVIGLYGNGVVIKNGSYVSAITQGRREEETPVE
Chain of Zika virus NS2B-NS3 protease (ZiPro) (A0A024B7W1 1417-1468): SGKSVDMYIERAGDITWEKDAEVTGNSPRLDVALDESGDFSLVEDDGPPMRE

In series [1] (triplicate), `N=C(N)NCCC[C@H](NC(=O)[C@H](CCCCN)NC(=O)[C@@H](N)CCNC(=O)[C@@H](N)CS)C(=O)N[C@@H](CCCCN)C(=O)N[C@@H](CCNC(=O)[C@@H](N)CS)C(N)=O` [1a] (H-[Dab](Cys)KRK[Dab](Cys)-NH2) showed an IC50 of 23 µM. In addition, the “ZiPro inhibition (%) 1 μM” value in series [1] (purified linear peptides at 1 μM, ZiPro 0.3 nM, substrate 5 μM, 10 mM Tris pH 8.5, 1 mM CHAPS, 20% glycerol, triplicate, n.i. = no inhibition) was “n.i”. In series [1] (purified linear peptides at 10 μM, ZiPro 0.3 nM, substrate Bz-Nle-Lys-Lys-Arg-AMC 5 μM, 10 mM Tris pH 8.5, 1 mM CHAPS, 20% glycerol, fluorescence, triplicate, n.i. = no inhibition), this molecule displayed an inhibition at 10 µM of 23 ± 4%. As to `N=C(N)NCCC[C@@H]1NC(=O)[C@H](CCCCN)NC(=O)[C@@H](N)CCNC(=O)[C@@H]2CSC(=N2)c2cccc(n2)C2=N[C@@H](CS2)C(=O)NCC[C@@H](C(N)=O)NC(=O)[C@H](CCCCN)NC1=O` [1b], the inhibition at 1 µM in series [1] (in situ stapled peptides (crude mixtures, no purification) after 24 h incubation with DCP, 1 μM, ZiPro 0.3 nM, substrate 5 μM, pH 8.5, triplicate, n.i. = no inhibition) amounted to 27 ± 4%. For the same molecule, the inhibition at 10 µM in series [1] (in situ stapled peptides (crude mixtures, no purification) after 24 h incubation with DCP, 10 μM, ZiPro 0.3 nM, substrate 5 μM, pH 8.5, triplicate, n.i. = no inhibition) came to 60 ± 7%. Moreover, the IC50 in series [1] (triplicate) was 0.8 µM. On to `N#Cc1cccc(C#N)n1` [DCP, 2,6-dicyanopyridine, reference compound], for which, in series [1] (concentrations of DCP used in the assay), the “effect of DCP on ZiPro activity” value is listed as “no significant effect”. As to H-Cys-Lys-Arg-Lys-Dab(Cys)-NH2?, the ring closure, conversion in series [2] (25-membered ring, 2,6-dicyanopyridine (2 eq)/TCEP, 10 mM Tris pH 7.5 (aq, MeOH from DCP stock)) amounted to 76%. The molecule H-Cys-Lys-Arg-Lys-Dap(Cys)-NH2? yielded a ring closure, conversion in series [2] (24-membered ring, 2,6-dicyanopyridine (2 eq)/TCEP, 10 mM Tris pH 7.5 (aq, MeOH from DCP stock)) of 83%. For the molecule H-Cys-Lys-Arg-Lys-Lys(Cys)-NH2?, the ring closure, conversion in series [2] (27-membered ring, 2,6-dicyanopyridine (2 eq)/TCEP, 10 mM Tris pH 7.5 (aq, MeOH from DCP stock)) was found to be 83%.

As for H-Cys-Lys-Arg-Lys-Orn(Cys)-NH2?, in series [2] (26-membered ring, 2,6-dicyanopyridine (2 eq)/TCEP, 10 mM Tris pH 7.5 (aq, MeOH from DCP stock)), the ring closure, conversion is 79%. Turning to H-Dys-Lys-Arg-Lys-Dys-NH2, the ring closure, conversion in series [2] (30-membered ring, 2,6-dicyanopyridine (2 eq)/TCEP (6 eq), 10 mM Tris pH 7.5) was 93%; in series [2] (30-membered ring, 2,6-dicyanopyridine (2 eq)/TCEP, 10 mM Tris pH 7.5 (aq, MeOH from DCP stock)), 89%; in series [2] (30-membered ring, 2,6-dicyanopyridine (8 eq)/TCEP, 10 mM Tris pH 7.5), 60%.
